Data published in patent US10011584B2, “Polymorphic form of [5-fluoro-3-({2-[(4-fluorobenzene) sulfonyl]pyridin-3-yl}methyl)-2-methylindol-1-yl]-acetic acid” (Atopix Therapeutics Limited, priority 2014, dated 2018).

Experiments:
Format in all cases: physicochemical
[1] = Thermodynamic stability of polymorphic forms (suspension equilibration of a mixture of forms, PXRD); conditions: for temperature range of thermodynamic stability (in words): enantiotropic polymorphs
Procedure: Polymorphic Form 2 has a melting signal at 196° C. as measured by differential scanning calorimetry and is stable at temperatures up to about 60-65° C.
A mixture with similar ratios of the products of Example 4, Experiment 15 (Form 1), Example 4, Experiment 9 (form 2+x) and Example 4, Experiment 6 (Form 2+Form 3) were suspended in acetonitrile and shaken for 13 days at 22° C. to give a product designated Product P24). The solid was recovered by filter centrifugation and characterized by PXRD. […] These signals could be assigned to (i) another crystalline form or (ii) the signals could not be detected for Product P24 because the diffractogram has a lower intensity.
Thus, after 13 days at 22° C. the PXRD corresponds to that of Form 2.

[2] = TG-FTIR thermogravimetry; conditions: 25° C. to 250° C., heating rate 10° C./min
Procedure: (§1) In the Examples the following conditions were used for measurements. • 1H-NMR: 1H-NMR spectra were recorded using a Bruker DPX300 spectrometer with a proton frequency of 300.13 MHz, a 30° excitation pulse, and a recycle delay of 1 s. 16 scans were accumulated. d6-DMSO was used as the solvent. • DSC: Differential scanning calorimetry was carried out with a Perkin Elmer DSC-7 instrument (closed gold sample pan under N2 atmosphere). • DVS (SPS): Sorption Measurement System SPS11-100n. The sample was placed in an Al crucible, and the sample was allowed to equilibrate at a given r.h. before starting a predefined humidity program. The used measurement program can be recognized in the corresponding figures (blue line). • FT-Raman spectroscopy: FT-Raman spectra were recorded on a Bruker RFS 100 FT-Raman system with a near infrared Nd:YAG laser operating at 1064 nm and a liquid nitrogen-cooled germanium detector. For each sample, a minimum of 64 scans with a resolution of 2 cm^−1 were accumulated. 300 mW laser power was used. The FT-Raman data are shown in the region between 3500 to 100 cm^−1. […] Sample preparation: The samples were generally measured without any special treatment other than the application of slight pressure to get a flat surface. […]
Batch 3 was analyzed by TG-FTIR in a temperature range of 25° C. to 250° C. and a heating rate of 10° C./min. […]

[3] = Dynamic vapour sorption (DVS) with FT-Raman check pre- and post-measurement
Procedure: as §1
In order to examine the behaviour of Batch 1 in the presence of variable water vapour pressure, the sample was analyzed by DVS. […]

With `Cc1c(Cc2cccnc2S(=O)(=O)c2ccc(F)cc2)c2cc(F)ccc2n1CC(=O)O` [Form 2, [5-fluoro-3-({2-[(4-fluorobenzene)sulfonyl]pyridin-3-yl}methyl)-2-methylindol-1-yl]-acetic acid] the “most stable form after suspension equilibration” value ([1]; mixture of Forms 1, 2 and 3 in acetonitrile, shaken 13 days at 22° C., PXRD) was “most stable form at room temperature” and the “temperature up to which the form is thermodynamically stable” value ([1]; upper limit of stability range of the polymorphic form) was 60-65 °C.

In the case of `Cc1c(Cc2cccnc2S(=O)(=O)c2ccc(F)cc2)c2cc(F)ccc2n1CC(=O)O` [Form 1, [5-fluoro-3-({2-[(4-fluorobenzene)sulfonyl]pyridin-3-yl}methyl)-2-methylindol-1-yl]-acetic acid], the “temperature range of thermodynamic stability (in words)” value [1] is reported as “thermodynamically stable at high temperatures”.

Work on `Cc1c(Cc2cccnc2S(=O)(=O)c2ccc(F)cc2)c2cc(F)ccc2n1CC(=O)O` [Batch 3, [5-fluoro-3-({2-[(4-fluorobenzene)sulfonyl]pyridin-3-yl}methyl)-2-methylindol-1-yl]-acetic acid] yielded a decomposition temperature [2] greater than 160 °C.

In the case of `Cc1c(Cc2cccnc2S(=O)(=O)c2ccc(F)cc2)c2cc(F)ccc2n1CC(=O)O` [Batch 1, [5-fluoro-3-({2-[(4-fluorobenzene)sulfonyl]pyridin-3-yl}methyl)-2-methylindol-1-yl]-acetic acid], the “phase transition of sample recovered from DVS” value ([3]; FT-Raman pre- and post DVS) is reported as “no phase transition” and the “mass change at the end of the DVS measurement versus starting material” value ([3]; end humidity 50% r.h., scanning rate 5% r.h. per hour, cycle 50-0-95-50% r.h.) is reported as 0.6%.

With `Cc1c(Cc2cccnc2S(=O)(=O)c2ccc(F)cc2)c2cc(F)ccc2n1CC(=O)O` [Form 3, [5-fluoro-3-({2-[(4-fluorobenzene)sulfonyl]pyridin-3-yl}methyl)-2-methylindol-1-yl]-acetic acid] the “temperature range of thermodynamic stability (in words)” value [1] was “stable at temperatures between the stability ranges of Forms 2 and 1”.
